The record followed here is US8778881B2 (priority 2004, dated 2014).

Structures are written as SMILES. Numbered stars: 1 amine (or outer) side, 2 acyl side, 3 side chain; on linkers, the order of the positions; unused ones are H or OH. Bridge positions count the residues as written; N and C are the ends. Square brackets hold non-standard residues; d marks the D form. Peptide text beside a SMILES is read from it. * marks the point of attachment. Orn(Me) = CN(CCC[C@H](N[*:1])C(=O)[*:2])[*:3]; Ala(4-thiazolyl) = N[C@@H](Cc1cscn1)C(=O)O; Ala(2-furyl) = N[C@@H](Cc1ccco1)C(=O)O; Orn(iPr) = CC(C)NCCC[C@H](N)C(=O)O; X1 = CCNCCC[C@H](N[*:1])C(=O)[*:2]; Dab(iPr) = CC(C)NCC[C@H](N)C(=O)O; 3Pal = N[C@@H](Cc1cccnc1)C(=O)O; 2Thi = N[C@@H](Cc1cccs1)C(=O)O; 3Thi = N[C@@H](Cc1ccsc1)C(=O)O; Aad = N[C@@H](CCCC(=O)O)C(=O)O; NHCH(CH2OH)2 = OCC(CO)N*; Orn = NCCC[C@H](N)C(=O)O; Dab = NCC[C@H](N)C(=O)O; X4 = OCCOCCN*; NHOH = ON*

The first assay deals with T1, human oxytocin (hOT) receptor (Homo sapiens, UniProt P30559).
T1 construct: expressed in transfected cells
T1 sequence (P30559 1-389): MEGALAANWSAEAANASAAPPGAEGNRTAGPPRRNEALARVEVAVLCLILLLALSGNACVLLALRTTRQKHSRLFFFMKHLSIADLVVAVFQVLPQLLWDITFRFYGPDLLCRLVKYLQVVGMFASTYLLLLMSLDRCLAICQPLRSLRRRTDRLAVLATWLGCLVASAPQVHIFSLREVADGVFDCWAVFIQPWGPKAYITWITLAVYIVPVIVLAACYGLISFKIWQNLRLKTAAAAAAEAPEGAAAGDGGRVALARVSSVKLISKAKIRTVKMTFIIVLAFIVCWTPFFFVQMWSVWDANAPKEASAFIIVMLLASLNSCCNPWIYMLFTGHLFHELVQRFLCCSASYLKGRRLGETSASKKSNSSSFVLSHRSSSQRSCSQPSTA
Put plainly: luciferase-based transcriptional reporter assay expressing the human oxytocin (hOT) receptor, for selectivity. It counts as cell-based.
Conditions: not given
The protocol: Agonist activity of compounds on the hV1a receptor was determined in a transcriptional reporter assay by transiently transfecting a hV1a receptor expression DNA into HEK-293 cells in concert with a reporter DNA containing intracellular calcium responsive promoter elements regulating expression of firefly luciferase. See Boss, V., Talpade, D. J., Murphy, T. J. J. Biol. Chem. 1996, May 3; 271(18), 10429-10432 for further guidance on this assay. […] To determine selectivity, compounds were tested in luciferase-based transcriptional reporter assays expressing the human oxytocin (hOT) receptor. Assays for other receptors (hV2, hV1b, rat V1a and rat V2) were also conducted.
The EC50 value given is the geometric mean expressed in nanomol/L (nM). Selectivity values are given as EC50 ratios.
In general terms: Reporter assays use an easily measured gene product as a stand-in for the process of interest.
As for `CC[C@H](C)[C@@H]1NC(=O)[C@H](Cc2ccco2)NC(=O)[C@@H](N)CSSC[C@@H](C(=O)N2CCC[C@H]2C(=O)N[C@@H](CCCNC(C)C)C(=O)NCC(N)=O)NC(=O)[C@H](CC(N)=O)NC(=O)[C@H](CC(N)=O)NC1=O` [Compound 42] (H-C[Ala(2-furyl)]INNCP[Orn(iPr)]G-NH2; disulfide 1-6), the “selectivity hOT/hV1a (class symbol)” value is “+ (key: +: selective hV1a receptor agonist; EC50 hOT/hV1a ratio not determined due to very low agonist efficacy (<30% compared to AVP) at the hOT receptor)”.

`CC[C@H](C)[C@@H]1NC(=O)[C@H](Cc2ccccc2)NC(=O)[C@@H](N)CSSC[C@@H](C(=O)N2CCC[C@H]2C(=O)N[C@@H](CCCN)C(=O)NCC(N)=O)NC(=O)[C@H](CC(N)=O)NC(=O)[C@H](CCCC(N)=O)NC1=O` [Compound 9] (H-CFI[Aad](NH2)NCP[Orn]G-NH2; disulfide 1-6): the “selectivity hOT/hV1a (class symbol)” value was “+ (key: +: selective hV1a receptor agonist; EC50 hOT/hV1a ratio not determined due to very low agonist efficacy (<30% compared to AVP) at the hOT receptor)”.

Still in this assay, the particulars now being: agonist efficacy at the hOT receptor compared to AVP; ratio not determined.
As to `CC[C@H](C)[C@@H]1NC(=O)[C@H](Cc2ccccc2)NC(=O)[C@@H](N)CSSC[C@@H](C(=O)N2CCC[C@H]2C(=O)N[C@@H](CCNC(C)C)C(=O)NCC(N)=O)NC(=O)[C@H](CC(N)=O)NC(=O)[C@H](CCCC(N)=O)NC1=O` [Compound 22] (H-CFI[Aad](NH2)NCP[Dab(iPr)]G-NH2; disulfide 1-6; N-terminus and C-terminus assumed), the “selectivity hOT/hV1a (class symbol)” value was “+ (selective hV1a receptor agonist; EC50 hOT/hV1a ratio not determined due to very low agonist efficacy (<30% compared to AVP) at the hOT receptor)”.

`CC[C@H](C)[C@@H]1NC(=O)[C@H](Cc2ccccc2)NC(=O)[C@@H](N)CSSC[C@@H](C(=O)N2CCC[C@H]2C(=O)N[C@@H](CCCN)C(=O)NCC(N)=O)NC(=O)[C@H](CC(N)=O)NC(=O)[C@H](CC(=O)NC(CO)CO)NC1=O` [Compound 27] (H-CFID(NHCH(CH2OH)2)NCP[Orn]G-NH2; disulfide 1-6; N-terminus and C-terminus assumed): the “selectivity hOT/hV1a (class symbol)” value is “+ (selective hV1a receptor agonist; EC50 hOT/hV1a ratio not determined due to very low agonist efficacy (<30% compared to AVP) at the hOT receptor)”.

For the compound `CC[C@H](C)[C@@H]1NC(=O)[C@H](Cc2cscn2)NC(=O)[C@@H](N)CSSC[C@@H](C(=O)N2CCC[C@H]2C(=O)N[C@@H](CCN)C(=O)NCC(N)=O)NC(=O)[C@H](CC(N)=O)NC(=O)[C@H](CCC(N)=O)NC1=O` [Compound 13] (H-C[Ala(4-thiazolyl)]IQNCP[Dab]G-NH2; disulfide 1-6; N-terminus and C-terminus assumed), the “selectivity hOT/hV1a (class symbol)” value is listed as “+ (selective hV1a receptor agonist; EC50 hOT/hV1a ratio not determined due to very low agonist efficacy (<30% compared to AVP) at the hOT receptor)”.

As to `CC[C@H](C)[C@@H]1NC(=O)[C@H](Cc2cccnc2)NC(=O)[C@@H](N)CSSC[C@@H](C(=O)N2CCC[C@H]2C(=O)N[C@@H](CCN)C(=O)NCC(N)=O)NC(=O)[C@H](CC(N)=O)NC(=O)[C@H](CCC(N)=O)NC1=O` [Compound 18] (H-C[3Pal]IQNCP[Dab]G-NH2; disulfide 1-6; N-terminus and C-terminus assumed), the “selectivity hOT/hV1a (class symbol)” value was “+ (selective hV1a receptor agonist; EC50 hOT/hV1a ratio not determined due to very low agonist efficacy (<30% compared to AVP) at the hOT receptor)”.

As for `CCNCCC[C@H](NC(=O)[C@@H]1CCCN1C(=O)[C@@H]1CSSC[C@H](N)C(=O)N[C@@H](Cc2ccccc2)C(=O)N[C@@H]([C@@H](C)CC)C(=O)N[C@@H](CC(N)=O)C(=O)N[C@@H](CC(N)=O)C(=O)N1)C(=O)NCC(N)=O` [Compound 47] (H-CFINNCP[X1]G-NH2; disulfide 1-6; N-terminus and C-terminus assumed), the “selectivity hOT/hV1a (class symbol)” value is “+ (selective hV1a receptor agonist; EC50 hOT/hV1a ratio not determined due to very low agonist efficacy (<30% compared to AVP) at the hOT receptor)”.

For the compound `CC[C@H](C)[C@@H]1NC(=O)[C@H](Cc2ccccc2)NC(=O)[C@@H](N)CSSC[C@@H](C(=O)N2CCC[C@H]2C(=O)N[C@@H](CCCNC)C(=O)NCC(N)=O)NC(=O)[C@H](CC(N)=O)NC(=O)[C@H](CC(N)=O)NC1=O` [Compound 46] (H-CFINNCP[Orn(Me)]G-NH2; disulfide 1-6; N-terminus and C-terminus assumed), the “selectivity hOT/hV1a (class symbol)” value is “+ (selective hV1a receptor agonist; EC50 hOT/hV1a ratio not determined due to very low agonist efficacy (<30% compared to AVP) at the hOT receptor)”.

For the compound `CC[C@H](C)[C@@H]1NC(=O)[C@H](Cc2ccsc2)NC(=O)[C@@H](N)CSSC[C@@H](C(=O)N2CCC[C@H]2C(=O)N[C@@H](CCN)C(=O)NCC(N)=O)NC(=O)[C@H](CC(N)=O)NC(=O)[C@H](CC(N)=O)NC1=O` [Compound 37] (H-C[3Thi]INNCP[Dab]G-NH2; disulfide 1-6; N-terminus and C-terminus assumed), the “selectivity hOT/hV1a (class symbol)” value is “+ (selective hV1a receptor agonist; EC50 hOT/hV1a ratio not determined due to very low agonist efficacy (<30% compared to AVP) at the hOT receptor)”.

Regarding `CC[C@H](C)[C@@H]1NC(=O)[C@H](Cc2ccccc2)NC(=O)[C@@H](N)CSSC[C@@H](C(=O)N2CCC[C@H]2C(=O)N[C@@H](CCN)C(=O)NCC(N)=O)NC(=O)[C@H](CC(N)=O)NC(=O)[C@H](CC(=O)NC)NC1=O` [Compound 31] (H-CFID(NHMe)NCP[Dab]G-NH2; disulfide 1-6; N-terminus and C-terminus assumed), the “selectivity hOT/hV1a (class symbol)” value was “+ (selective hV1a receptor agonist; EC50 hOT/hV1a ratio not determined due to very low agonist efficacy (<30% compared to AVP) at the hOT receptor)”.

With `NCCCC[C@H](NC(=O)[C@@H]1CCCN1C(=O)[C@@H]1CSSC[C@H](NC(=O)CNC(=O)CNC(=O)CN)C(=O)N[C@@H](Cc2ccc(O)cc2)C(=O)N[C@@H](Cc2ccccc2)C(=O)N[C@@H](CCC(N)=O)C(=O)N[C@@H](CC(N)=O)C(=O)N1)C(=O)NCC(N)=O` [terlipressin, reference compound] (H-GGGCYFQNCPKG-NH2; disulfide 4-9), the “selectivity hOT/hV1a (class symbol)” value is listed as “+ (selective hV1a receptor agonist; EC50 hOT/hV1a ratio not determined due to very low agonist efficacy (<30% compared to AVP) at the hOT receptor)”.

Turning to `CC[C@H](C)[C@@H]1NC(=O)[C@H](Cc2ccccc2)NC(=O)[C@@H](N)CSSC[C@@H](C(=O)N2CCC[C@H]2C(=O)N[C@@H](CCCN)C(=O)NCC(N)=O)NC(=O)[C@H](CC(N)=O)NC(=O)[C@H](CC(N)=O)NC1=O` [Compound 30] (H-CFINNCP[Orn]G-NH2; disulfide 1-6; N-terminus and C-terminus assumed), the “selectivity hOT/hV1a (class symbol)” value is listed as “+ (selective hV1a receptor agonist; EC50 hOT/hV1a ratio not determined due to very low agonist efficacy (<30% compared to AVP) at the hOT receptor)”.

`CC[C@H](C)[C@@H]1NC(=O)[C@H](Cc2ccccc2)NC(=O)[C@@H](N)CSSC[C@@H](C(=O)N2CCC[C@H]2C(=O)N[C@@H](CCCN)C(=O)NCC(N)=O)NC(=O)[C@H](CC(N)=O)NC(=O)[C@H](CC(=O)NCCOCCO)NC1=O` [Compound 29] (H-CFID(X4)NCP[Orn]G-NH2; disulfide 1-6; N-terminus and C-terminus assumed): the “selectivity hOT/hV1a (class symbol)” value is given as “+ (selective hV1a receptor agonist; EC50 hOT/hV1a ratio not determined due to very low agonist efficacy (<30% compared to AVP) at the hOT receptor)”.

As for `CC[C@H](C)[C@@H]1NC(=O)[C@H](Cc2ccccc2)NC(=O)[C@@H](N)CSSC[C@@H](C(=O)N2CCC[C@H]2C(=O)N[C@@H](CCCN)C(=O)NCC(N)=O)NC(=O)[C@H](CC(N)=O)NC(=O)[C@H](CCC(=O)NO)NC1=O` [Compound 16] (H-CFIE(NHOH)NCP[Orn]G-NH2; disulfide 1-6; N-terminus and C-terminus assumed), the “selectivity hOT/hV1a (class symbol)” value is “+ (selective hV1a receptor agonist; EC50 hOT/hV1a ratio not determined due to very low agonist efficacy (<30% compared to AVP) at the hOT receptor)”.

In the case of `CCNC(=O)C[C@@H]1NC(=O)[C@H]([C@@H](C)CC)NC(=O)[C@H](Cc2ccccc2)NC(=O)[C@@H](N)CSSC[C@@H](C(=O)N2CCC[C@H]2C(=O)N[C@@H](CCCN)C(=O)NCC(N)=O)NC(=O)[C@H](CC(N)=O)NC1=O` [Compound 48] (H-CFID(NHEt)NCP[Orn]G-NH2; disulfide 1-6; N-terminus and C-terminus assumed), the “selectivity hOT/hV1a (class symbol)” value was “+ (selective hV1a receptor agonist; EC50 hOT/hV1a ratio not determined due to very low agonist efficacy (<30% compared to AVP) at the hOT receptor)”.

For `CC[C@H](C)[C@@H]1NC(=O)[C@H](Cc2cccs2)NC(=O)[C@@H](N)CSSC[C@@H](C(=O)N2CCC[C@H]2C(=O)N[C@@H](CCN)C(=O)NCC(N)=O)NC(=O)[C@H](CC(N)=O)NC(=O)[C@H](CC(N)=O)NC1=O` [Compound 36] (H-C[2Thi]INNCP[Dab]G-NH2; disulfide 1-6; N-terminus and C-terminus assumed), the “selectivity hOT/hV1a (class symbol)” value is given as “+ (selective hV1a receptor agonist; EC50 hOT/hV1a ratio not determined due to very low agonist efficacy (<30% compared to AVP) at the hOT receptor)”.
